Read-outs that look alike come from different tables or passages of the source.

Assay [1] has as its target GGTase I (substrate RhoA) (Homo sapiens, UniProt P49354+P53609). As to the kind of experiment: GGTase I filter-binding assay with RhoA as substrate. It counts as biochemical. Particulars: read-out: % activity of GGTase I for protein RhoA in the presence of the compound. As to the method:
(§1) The pilot library was screened for inhibitors of protein geranylgeranyltransferase type I. Protein prenyltransferase assays were carried out by using filter binding. Two different substrates, RhoA and K-Ras4B, were used for the assay. RhoA ends with the CaaL motif and is an exclusive substrate for GGTase I, while K-Ras4B ends with the CaaX motif and is modified by both GGTase I and FTase.
(§2) The % activity of GGTase I was determined as follows: a working solution that contained each compound in DMSO at the concentration of 1 mM was prepared. The working solution was added to GGTase I reaction mixture so that the final concentration of the compound is 50 μM. GGTase I activity was assayed by incubating [^3H]GGPP with K-Ras4B or RhoA protein in the presence of GGTase I and examining radioactivity incorporated into the substrate protein by spotting onto a filter paper. After washing with TCA, ethanol and acetone, the radioactivity retained on the filter was determined by the use of a scintillation counter. GGTase I activity in the presence of DMSO was taken as a 100% value and the activity in the presence of the compound was shown as percent activity compared with the 100% value. […] For 6-aryl-4-mercapto-N-sulfonyl-piperidine-3-carboxylic acid 11 the 4-mercapto substituent appeared critical to endowing GGTase inhibitory activity. […] 4-Chlorobenzylthio substituent was the next best; 12 compounds out of 21 containing the 4-chlorobenzylthio moiety were active. 4-Benzylthio substituent was also good; 7 piperidines out of 21 bearing 4-benzylthio group were active. […] 19 imines (C15>C12=C41>C40>C01=C11>C05=C10=C30=C35=C37=C38>C02, C03, C04, C06, C39=C43) out of 21 appeared in the GGTIs. […] This corresponds to 47 6-aryl-4-mercapto-N-sulfonyl-piperidine-3-carboxylic acids out of 357 compounds.
(§3) A collection of 138 heterocycles was screened for their ability to inhibit the activity of human GGTase-I to geranylgeranylate K-Ras4B or RhoA. Purified GGTase-1 was incubated with its substrate protein K-Ras4B or RhoA, [^3H]GGPP, and the 138 compounds. After 30 min, the degree of incorporation of tritiated geranylgeranyl groups was measured using a scintillation counter.
The GGTase-I assay was carried out using RhoA as a substrate protein, GGTase-I (JENA Bioscience) and [3H]geranylgeranyl pyrophosphate. Incubation was for 30 min at 37 C. GGTase-H (or RabGGTase) assay was carried out using YPT1 as a substrate protein, GGTase-H (Calbiochem, San Diego, Calif.) plus REP1 (Calbiochem) and [3H]geranylgeranyl pyrophosphate. Incubation was for 30 min at 37 C. FIGS. 20D-20F show the three dimensional structure of GGTase I (D), FTsse (E) and GGTase II (F) which can be obtained from X-ray diffraction studies of protein crystals.

Assay [2] addresses GGTase I (substrate K-Ras4B) (Homo sapiens, UniProt P49354+P53609). As to the kind of experiment: GGTase I filter-binding assay with K-Ras4B as substrate. In kind it is biochemical. As to conditions: read-out: % activity of GGTase I for protein K-Ras4B in the presence of the compound. Here is the method: as §1, §2, §3
[3] abbreviates: 50 μM compound, DMSO = 100%, smaller numbers indicate better inhibition, second number of pair.
[4] abbreviates: 50 μM compound, DMSO = 100%, smaller numbers indicate better inhibition, first number of pair.

For the molecule `Cc1ccc(S(=O)(=O)N2C(c3ccc(Cl)c(Cl)c3)CC=C(C(=O)O)[C@@H]2c2cccc(Cl)c2)cc1` (stereo partly shown), the activity at 50 µM came to 4.5% in assay [1] and 10.7% in assay [2].

Regarding `Cc1ccc(S(=O)(=O)N2C(c3ccc(Cl)c(Cl)c3)CC=C(C(=O)O)[C@@H]2c2ccc(Br)cc2)cc1` (stereo partly shown), the activity at 50 µM was found to be 11.3% in assay [1] and 18.7% in assay [2].

Consider `Cc1ccc(S(=O)(=O)N2C(c3cccc(Br)c3)CC=C(C(=O)O)[C@@H]2c2cccc(C)c2)cc1` (stereo partly shown), for which the figures for the activity at 50 µM in assay [1] (setting [3]) and in assay [2] (setting [4]) were 14.3% and 16.1%, respectively.

Regarding `C=CCS[C@H]1[C@@H](C(=O)O)[C@H](c2ccc(OC)c(OC)c2)N(S(=O)(=O)c2ccc(C)cc2)[C@@H]1CCCCCC`, the activity at 50 µM in assay [1] (setting [3]) turned out to be 8.1%; in assay [2] (setting [4]) it was 22.3%.

Take `C=CCS[C@H]1[C@@H](C(=O)O)[C@H](c2ccc(C#N)cc2)N(S(=O)(=O)c2ccc(C)cc2)[C@@H]1CCCCCC`: the activity at 50 µM turned out to be 6% in assay [1] (setting [3]) and 21.5% in assay [2] (setting [4]).

For the molecule `C=CCS[C@H]1[C@@H](C(=O)O)[C@H](c2ccc(Cl)c(Cl)c2)N(S(=O)(=O)c2ccc(C)cc2)[C@@H]1CCCC`, the activity at 50 µM in assay [1] (setting [3]) was found to be 9.6%; in assay [2] (setting [4]) it was 21.4%.

For the molecule `Cc1ccccc1S(=O)(=O)N1C(c2ccc(Cl)cc2)CC=C(C(=O)O)[C@@H]1c1ccccc1F` (stereo partly shown), the values for the activity at 50 µM in assay [1] (setting [3]) and in assay [2] (setting [4]) were 4.1% and 8.4%, respectively.

On to `Cc1ccc(S(=O)(=O)N2C(c3cccc(Br)c3)CC=C(C(=O)O)[C@@H]2c2cccc(Cl)c2)cc1` (stereo partly shown), for which the activity at 50 µM turned out to be 7.9% in assay [1] (setting [3]) and 9.8% in assay [2] (setting [4]).

On to `CCC[C@@H]1[C@@H](Sc2ccc(C)cc2)[C@@H](C(=O)O)[C@H](c2cccc(F)c2)N1S(=O)(=O)c1ccc(C)cc1`, for which the activity at 50 µM worked out at 4.1% in assay [1] (setting [3]) and 14.7% in assay [2] (setting [4]).

Regarding `CC(C)(C)OC(=O)CCS[C@H]1[C@@H](C(=O)O)[C@H](c2ccc(Cl)cc2)N(S(=O)(=O)c2ccc(Cl)cc2)[C@@H]1CC1CCCC1`, the activity at 50 µM in assay [1] (setting [3]) is 9.8%; in assay [2] (setting [4]), 22.5%.

Consider `CC[C@@H]1[C@@H](SCCC(=O)OC(C)(C)C)[C@@H](C(=O)O)[C@H](c2ccc(Cl)c(Cl)c2)N1S(=O)(=O)c1ccc(C)cc1`, for which the figures for the activity at 50 µM in assay [1] (setting [3]) and in assay [2] (setting [4]) were 7.6% and 27.2%, respectively.

As for `Cc1ccc(S(=O)(=O)N2C(c3ccc(Cl)c(Cl)c3)CC=C(C(=O)O)[C@@H]2c2cccc(C)c2)cc1` (stereo partly shown), the activity at 50 µM in assay [1] (setting [3]) is 10.3%; in assay [2] (setting [4]), 12.6%.

With `CCCCCC[C@@H]1[C@@H](Sc2ccc(C)cc2)[C@@H](C(=O)O)[C@H](c2ccc(Cl)cc2)N1S(=O)(=O)c1ccccc1`, the activity at 50 µM in assay [1] (setting [3]) was 7.5%; in assay [2] (setting [4]), 15%.

Turning to `C=CCS[C@H]1[C@@H](C(=O)O)[C@H](c2ccc(Cl)cc2)N(S(=O)(=O)c2ccccc2C)[C@@H]1CCCCCC`, the activity at 50 µM stood at 6% in assay [1] (setting [3]) and 24.9% in assay [2] (setting [4]).

Regarding `O=C(O)C1=CCC(c2ccc(Cl)cc2)N(S(=O)(=O)c2ccc(Cl)cc2)[C@H]1c1cccc(Br)c1` (stereo partly shown), the activity at 50 µM in assay [1] (setting [3]) is 5%; in assay [2] (setting [4]) it was 8.6%.

Turning to `C=CCS[C@H]1[C@@H](C(=O)O)[C@H](c2ccc(Cl)cc2)N(S(=O)(=O)c2ccccc2C)[C@@H]1CCCC`, the activity at 50 µM amounted to 8.4% in assay [1] (setting [3]) and 23.1% in assay [2] (setting [4]).

For `C=CCS[C@H]1[C@@H](C(=O)O)[C@H](c2ccc(Cl)cc2)N(S(=O)(=O)c2ccccc2C)[C@@H]1CCC`, the activity at 50 µM in assay [1] (setting [3]) turned out to be 8.9%; in assay [2] (setting [4]), 28.4%.

For `C=CCS[C@H]1[C@@H](C(=O)O)[C@H](c2ccc(Br)cc2)N(S(=O)(=O)c2ccc(C)cc2)[C@@H]1CCCCCC`, the activity at 50 µM in assay [1] (setting [3]) was 5.5%; in assay [2] (setting [4]) it was 15.5%.

Consider `C=CCS[C@H]1[C@@H](C(=O)O)[C@H](c2ccc(Cl)c(Cl)c2)N(S(=O)(=O)c2ccc(C)cc2)[C@@H]1CCCCCC`, for which the activity at 50 µM in assay [1] (setting [3]) amounted to 6.8%; in assay [2] (setting [4]), 15.1%.

As for `CCC[C@@H]1[C@@H](SCCC(=O)OC(C)(C)C)[C@@H](C(=O)O)[C@H](c2cccc(F)c2)N1S(=O)(=O)c1ccc(C)cc1`, the values for the activity at 50 µM in assay [1] (setting [3]) and in assay [2] (setting [4]) were 7.8% and 20.2%, respectively.

As for `Cc1ccc(S(=O)(=O)N2C(c3cccc(Br)c3)CC=C(C(=O)O)[C@@H]2c2cccc(F)c2)cc1` (stereo partly shown), the activity at 50 µM in assay [1] (setting [3]) is 15%; in assay [2] (setting [4]) it was 17%.

Turning to `Cc1ccc(S(=O)(=O)N2[C@@H](c3cccc(F)c3)C(C(=O)O)=C[C@H]2C(C)(C)C)cc1`, the activity at 50 µM in assay [1] was determined as 9.1%; in assay [2], 23.7%.

Consider `CCCCCC[C@@H]1[C@@H](Sc2ccc(C)cc2)[C@@H](C(=O)O)[C@H](c2ccc(Cl)c(Cl)c2)N1S(=O)(=O)c1ccc(C)cc1`, for which the activity at 50 µM in assay [1] (setting [3]) amounted to 9.2%; in assay [2] (setting [4]), 21.3%.

For `Cc1ccc(S(=O)(=O)N2C(c3cccc(Cl)c3)CC=C(C(=O)O)[C@@H]2c2cccc(Cl)c2)cc1` (stereo partly shown), the activity at 50 µM is 6% in assay [1] (setting [3]) and 43.7% in assay [2] (setting [4]).

On to `Cc1ccccc1S(=O)(=O)N1[C@H](CC2CCCC2)[C@@H](SCCC(=O)OC(C)(C)C)[C@@H](C(=O)O)[C@@H]1c1ccc(Cl)cc1`, for which the figures for the activity at 50 µM in assay [1] (setting [3]) and in assay [2] (setting [4]) were 7.8% and 10%, respectively.

For `CCCC[C@@H]1[C@@H](Sc2ccc(OC)cc2)[C@@H](C(=O)O)[C@H](c2cccc(F)c2)N1S(=O)(=O)c1ccc(C)cc1`, the activity at 50 µM was 3.5% in assay [1] (setting [3]) and 27.4% in assay [2] (setting [4]).

Take `C=CCS[C@H]1[C@@H](C(=O)O)[C@H](c2cccc(F)c2)N(S(=O)(=O)c2ccc(C)cc2)[C@@H]1CC1CCCC1`: the activity at 50 µM in assay [1] (setting [3]) is 9.7%; in assay [2] (setting [4]), 30.4%.

With `Cc1ccc(S(=O)(=O)N2[C@H](CC3CCCC3)[C@@H](SCCC(=O)OC(C)(C)C)[C@@H](C(=O)O)[C@@H]2c2cccc(Cl)c2)cc1`, the results for the activity at 50 µM in assay [1] (setting [3]) and in assay [2] (setting [4]) were 5.6% and 20.6%, respectively.

As for `CCCCCC[C@@H]1[C@@H](SC2CCCC2)[C@@H](C(=O)O)[C@H](c2ccc(C#N)cc2)N1S(=O)(=O)c1ccc(C)cc1`, the activity at 50 µM in assay [1] (setting [3]) is 7.4%; in assay [2] (setting [4]) it was 20.1%.

Consider `Cc1ccccc1S(=O)(=O)N1C(c2ccc(Cl)cc2)CC=C(C(=O)O)[C@@H]1c1ccccc1` (stereo partly shown), for which the activity at 50 µM in assay [1] was 5.8%; in assay [2] it was 13.4%.

As for `C=CCS[C@H]1[C@@H](C(=O)O)[C@H](c2ccc(C#N)cc2)N(S(=O)(=O)c2ccc(C)cc2)[C@@H]1C(C)C`, the values for the activity at 50 µM in assay [1] (setting [3]) and in assay [2] (setting [4]) were 9.3% and 23.1%, respectively.

For `Cc1ccc([C@H]2C(C(=O)O)=CCC(c3ccc(Cl)c(Cl)c3)N2S(=O)(=O)c2ccc(C)cc2)cc1` (stereo partly shown), the figures for the activity at 50 µM in assay [1] (setting [3]) and in assay [2] (setting [4]) were 15.6% and 12.4%, respectively.

Turning to `COc1ccc([C@H]2C(C(=O)O)=C[C@@H](C(C)(C)C)N2S(=O)(=O)c2ccc(C)cc2)cc1OC`, the results for the activity at 50 µM in assay [1] (setting [3]) and in assay [2] (setting [4]) were 6.1% and 23.4%, respectively.

On to `CCCCCS[C@H]1[C@@H](C(=O)O)[C@H](c2cccc(F)c2)N(S(=O)(=O)c2ccc(C)cc2)[C@@H]1CCCC`, for which the activity at 50 µM in assay [1] (setting [3]) turned out to be 7.1%; in assay [2] (setting [4]) it was 23.5%.

On to `CC(C)(C)OC(=O)CCS[C@H]1[C@@H](C(=O)O)[C@H](c2ccc(Cl)cc2)N(S(=O)(=O)c2ccccc2)[C@@H]1CC1CCCC1`, for which the activity at 50 µM was 9.7% in assay [1] (setting [3]) and 30.4% in assay [2] (setting [4]).

Consider `Cc1ccccc1S(=O)(=O)N1[C@@H](c2ccc(Cl)cc2)C(C(=O)O)=C[C@H]1CC1CCCC1`, for which the activity at 50 µM is 9.1% in assay [1] and 23.7% in assay [2].

For the molecule `C=CCS[C@H]1[C@@H](C(=O)O)[C@H](c2ccc(Cl)cc2)N(S(=O)(=O)c2ccccc2C)[C@@H]1CC1CCCC1`, the activity at 50 µM in assay [1] (setting [3]) stood at 4.9%; in assay [2] (setting [4]), 22.4%.

On to `COc1ccc(S[C@H]2[C@@H](C(=O)O)[C@H](c3ccc(Cl)cc3)N(S(=O)(=O)c3ccc(Cl)cc3)[C@@H]2C(C)C)cc1`, for which the activity at 50 µM in assay [1] (setting [3]) came out at 8%; in assay [2] (setting [4]), 48.7%.

(Values after patent US8093274B2, “Inhibitors of protein prenyltransferases” (The Regents of the University of California, priority 2006, dated 2012).)
